This is an account of results in PMC9000588 (Molecules, 2022).

Numbered stars: 1 amine (or outer) side, 2 acyl side, 3 side chain; on linkers, the order of the positions; unused ones are H or OH. Bridge positions count the residues as written; N and C are the ends. Ends that are not written are not given here. Peptide text beside a SMILES is read from it. Suc = O=C(CCC(=O)[*:2])[*:1]

In the assay the target is SARS-CoV-2 spike protein RBD (Severe acute respiratory syndrome coronavirus 2, UniProt P0DTC2). Kind of assay: biochemical. It counts as binding. The conditions noted are these: for kon: read-out: Ka; for Binding (Yes/No): pH 7.4.

With KFNDEAEDLFKLFEELFEDM-NH2 [Peptide 10], the kon amounted to 6.81 ± 2.41 M⁻¹ s⁻¹.

For the compound KFNHEAEDLFEKLM [Peptide 1], the kon turned out to be 4.62 ± 0.45 M⁻¹ s⁻¹.

Consider GLFKEALEELWEA-NH2 [Peptide 8], for which the kon was found to be 5.39 ± 1.31 M⁻¹ s⁻¹.

Consider `CSCC[C@@H]1NC(=O)[C@H](CC(C)C)NC(=O)[C@H](CCCCN)NC(=O)[C@H](CCC(=O)O)NC(=O)[C@H](Cc2ccccc2)NC(=O)[C@H](CC(C)C)NC(=O)[C@H](CC(=O)O)NC(=O)[C@H](CCC(=O)O)NC(=O)[C@H](C)NC(=O)[C@H](CCC(=O)O)NC(=O)[C@H](Cc2c[nH]cn2)NC(=O)[C@H](CC(N)=O)NC(=O)[C@H](Cc2ccccc2)NC(=O)[C@H](CCCCN)NC1=O` [Peptide 3] (cyclo(AEDLFEKLMKFNHE)), for which the kon turned out to be 15.1 ± 3.8 M⁻¹ s⁻¹.

Take `CSCC[C@H](NC(=O)[C@H](CC(C)C)NC(=O)[C@H](CCCCN)NC(=O)[C@H](CCC(=O)O)NC(=O)[C@H](Cc1ccccc1)NC(=O)[C@H](CC(C)C)NC(=O)[C@H](CC(=O)O)NC(=O)[C@H](CCC(=O)O)NC(=O)[C@H](C)NC(=O)[C@H](CCC(=O)O)NC(=O)[C@H](Cc1c[nH]cn1)NC(=O)[C@H](CC(N)=O)NC(=O)[C@H](Cc1ccccc1)NC(=O)[C@H](CCCCN)NC(=O)CCC(=O)O)C(N)=O` [Peptide 4] (Suc-KFNHEAEDLFEKLM-NH2): the kon stood at 13.9 ± 3.6 M⁻¹ s⁻¹.

In the case of Ac-KFNHEAEDLFEKLM [Peptide 5], the kon turned out to be 0.64 ± 0.09 M⁻¹ s⁻¹.

For the compound `CSCC[C@H](NC(=O)[C@H](CC(=O)O)NC(=O)[C@H](CCC(=O)O)NC(=O)[C@H](Cc1ccccc1)NC(=O)[C@H](CC(C)C)NC(=O)[C@H](CCC(=O)O)NC(=O)[C@H](CCC(=O)O)NC(=O)[C@H](Cc1ccccc1)NC(=O)[C@H](CC(C)C)NC(=O)[C@H](CCCCN)NC(=O)[C@H](CCC(=O)O)NC(=O)[C@H](Cc1ccccc1)NC(=O)[C@H](CC(C)C)NC(=O)[C@H](CC(=O)O)NC(=O)[C@H](CCC(=O)O)NC(=O)[C@H](C)NC(=O)[C@H](CCC(=O)O)NC(=O)[C@H](Cc1c[nH]cn1)NC(=O)[C@H](CC(N)=O)NC(=O)[C@H](Cc1ccccc1)NC(=O)[C@H](CCCCN)NC(=O)CCC(=O)O)C(N)=O` [Peptide 7] (Suc-KFNHEAEDLFEKLFEELFEDM-NH2), the Kd result is listed as “(2.09 ± 0.39) × 10^−2 M^−1”, the “Binding (Yes/No)” value is “Yes” and the kon worked out at 4.29 ± 0.52 M⁻¹ s⁻¹.

Turning to MIEEQAKFLDKFNHEAEDLFK-NH2 [Peptide 11], the “binding to the spike protein RBD at higher concentrations” value is recorded as “bound”.

For the compound KFNHEAEDLFEKLM-NH2 [Peptide 2], the kon is 1.15 ± 0.08 M⁻¹ s⁻¹.

As to `CC(C)C[C@H](NC(=O)CCC(=O)O)C(=O)N[C@@H](CC(C)C)C(=O)N[C@@H](CCC(=O)O)C(=O)N[C@@H](CCCCN)C(=O)N[C@@H](CC(C)C)C(=O)N[C@@H](CC(C)C)C(=O)N[C@@H](CCC(=O)O)C(=O)N[C@@H](Cc1c[nH]c2ccccc12)C(=O)N[C@@H](CC(C)C)C(=O)N[C@@H](CCC(=O)O)C(N)=O` [Peptide 9] (Suc-LLEKLLEWLE-NH2), the Kd entry is reported as “(1.39 ± 0.16) × 10^−2 M^−1”, the “Binding (Yes/No)” value is recorded as “Yes” and the kon stood at 5.83 ± 2.92 M⁻¹ s⁻¹.

Take `CSCC[C@@H]1NC(=O)[C@H](CC(C)C)NC(=O)[C@H](CCCCN)NC(=O)[C@H](CCC(=O)O)NC(=O)[C@H](Cc2ccccc2)NC(=O)[C@H](CC(C)C)NC(=O)[C@H](CC(=O)O)NC(=O)[C@H](CCC(=O)O)NC(=O)[C@H](C)NC(=O)[C@H](CCC(=O)O)NC(=O)[C@H](Cc2c[nH]cn2)NC(=O)[C@H](CC(N)=O)NC(=O)[C@H](Cc2ccccc2)NC(=O)[C@H](CCCCN)NC(=O)[C@@H](N)CSSC[C@@H](C(N)=O)NC1=O` [Peptide 6] (H-CKFNHEAEDLFEKLMC-NH2; disulfide 1-16): the kon is 6.84 ± 2.46 M⁻¹ s⁻¹.
